pKi: −log10 of the molar value.
Biological target: T1, human capsaicin receptor (VR1) (Homo sapiens, UniProt Q8NER1)
T1 construct: transfected with the pBK-CMV expression construct encoding the full length human capsaicin receptor; expressed in transfected cells
Assay: Capsaicin receptor binding assay ([3H]RTX competition)
Settings: read-out: Ki
Excerpt: This Example illustrates the preparation of VR1-transfected cells and membrane preparations for use in binding assays (Example 5) and functional assays (Example 6).
A cDNA encoding full length human capsaicin receptor (SEQ ID NO: 1, 2 or 3 of U.S. Pat. No. 6,482,611) was subcloned in the plasmid pBK-CMV (Stratagene, La Jolla, Calif.) for recombinant expression in mammalian cells.
Human embryonic kidney (HEK293) cells were transfected with the pBK-CMV expression construct encoding the full length human capsaicin receptor using standard methods. The transfected cells were selected for two weeks in media containing G418 ([…]) to obtain a pool of stably transfected cells. Independent clones were isolated from this pool by limiting dilution to obtain clonal stable cell lines for use in subsequent experiments.
For radioligand binding experiments, cells were seeded in T175 cell culture flasks in media without antibiotics and grown to approximately 90% confluency. The flasks were then washed with PBS and harvested in PBS containing 5 mM EDTA. The cells were pelleted by gentle centrifugation and stored at −80° C. until assayed.
Previously frozen cells were disrupted with the aid of a tissue homogenizer in ice-cold HEPES homogenization buffer (5mM KCl 5, 5.8 mM NaCl, 0.75 mM CaCl2, 2 mM MgCl2, 320 mM sucrose, and 10 mM HEPES pH 7.4). Tissue homogenates were first centrifuged for 10 minutes at 1000×g (4° C.) to remove the nuclear fraction and debris, and then the supernatant from the first centrifugation is further centrifuged for 30 minutes at 35,000×g (4° C.) to obtain a partially purified membrane fraction. Membranes were resuspended in the HEPES homogenization buffer prior to the assay. An aliquot of this membrane homogenate is used to determine protein concentration via the Bradford method (BIO-RAD Protein Assay Kit, #500-0001, BIO-RAD, Hercules, Calif.).
This Example illustrates a representative assay of capsaicin receptor binding that may be used to determine the binding affinity of compounds for the capsaicin (VR1) receptor.
Binding studies with [^3H] Resiniferatoxin (RTX) are carried out essentially as described by Szallasi and Blumberg (1992) J. Pharmacol. Exp. Ter. 262: 883-888. In this protocol, non-specific RTX binding is reduced by adding bovine alpha, acid glycoprotein (100 μg per tube) after the binding reaction has been terminated.
[^3H] RTX (37 Ci/mmol) is synthesized by and obtained from the Chemical Synthesis and Analysis Laboratory, National Cancer Institute-Frederick Cancer Research and Development Center, Frederick, Md. [^3H] RTX may also be obtained from commercial vendors (e.g., Amersham Pharmacia Biotech, Inc.; Piscataway, N.J.).
The membrane homogenate of Example 4 is centrifuged as before and resuspended to a protein concentration of 333 μg/ml in homogenization buffer. Binding assay mixtures are set up on ice and contain [^3H]JRTX (specific activity 2200 mCi/ml), 2 μl non-radioactive test compound, 0.25 mg/ml bovine serum albumin (Cohn fraction V), and 5×10^4−1×10^5 VR1-transfected cells. The final volume is adjusted to 500 μl (for competition binding assays) or 1,000 μl (for saturation binding assays) with the ice-cold HEPES homogenization buffer solution (pH 7.4) described above. Non-specific binding is defined as that occurring in the presence of 1 μM non-radioactive RTX (Alexis Corp.; San Diego, Calif.). For saturation binding, [^3H]RTX is added in the concentration range of […], using 1 to 2 dilutions. Typically 11 concentration points are collected per saturation binding curve.
Competition binding assays are performed in the presence of 60 pM [^3H]RTX and various concentrations of test compound. The binding reactions are initiated by transferring the assay mixtures into a 37° C. water bath and are terminated following a 60 minute incubation period by cooling the tubes on ice.

T1 sequence (Q8NER1 whole entry): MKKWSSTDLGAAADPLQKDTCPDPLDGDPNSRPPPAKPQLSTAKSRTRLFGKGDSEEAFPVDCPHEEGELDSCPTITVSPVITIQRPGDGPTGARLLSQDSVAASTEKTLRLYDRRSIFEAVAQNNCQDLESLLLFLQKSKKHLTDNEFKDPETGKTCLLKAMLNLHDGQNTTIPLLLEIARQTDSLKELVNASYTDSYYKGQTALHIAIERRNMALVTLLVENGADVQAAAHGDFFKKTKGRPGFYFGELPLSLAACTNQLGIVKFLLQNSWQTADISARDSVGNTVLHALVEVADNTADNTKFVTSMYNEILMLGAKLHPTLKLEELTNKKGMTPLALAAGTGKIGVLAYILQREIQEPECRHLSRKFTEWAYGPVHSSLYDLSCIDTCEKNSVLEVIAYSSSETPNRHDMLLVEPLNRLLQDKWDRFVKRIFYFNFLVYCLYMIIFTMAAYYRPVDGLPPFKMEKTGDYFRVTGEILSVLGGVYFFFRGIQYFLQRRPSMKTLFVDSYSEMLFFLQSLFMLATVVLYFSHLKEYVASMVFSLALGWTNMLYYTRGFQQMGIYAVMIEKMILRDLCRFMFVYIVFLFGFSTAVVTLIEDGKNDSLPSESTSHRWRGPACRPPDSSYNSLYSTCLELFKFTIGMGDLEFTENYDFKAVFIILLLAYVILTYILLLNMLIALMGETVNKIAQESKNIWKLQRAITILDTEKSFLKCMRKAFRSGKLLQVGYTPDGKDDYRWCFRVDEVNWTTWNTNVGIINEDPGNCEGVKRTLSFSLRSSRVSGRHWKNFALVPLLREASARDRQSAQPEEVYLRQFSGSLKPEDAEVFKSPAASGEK

| Compound | pKi |
| --- | --- |
| O=C(Nc1ccc(S(=O)(=O)C(F)(F)F)cc1)c1ccc(-c2ncccc2C(F)(F)F)cc1[N+](=O)[O-] [Compound 18, 2-Nitro-N-(4-trifluoromethanesulfonyl-phenyl)-4-(3-trifluoromethyl-pyridin-2-yl)-benzamide] | > 6.00 |
| CC(C)(C)c1ccc(NC(=O)c2ccc(-c3ccccc3Cl)nc2)cc1 [Compound 442, N-(4-tert-Butyl-phenyl)-6-(2-chloro-phenyl)-nicotinamide] | > 6.00 |
| CCCCc1ccc(NC(=O)c2ccc(-c3ccccc3C)nc2)cc1 [Compound 343, N-(4-Butyl-phenyl)-6-o-tolyl-nicotinamide] | > 6.00 |
| CC(C)(C)c1ccc(NC(=O)c2ccc(-c3ncccc3Cl)cc2)cc1 [Compound 404, N-(4-tert-Butyl-phenyl)-4-(3-chloro-pyridin-2-yl)-benzamide] | > 6.00 |
| CC(=O)N1CCCCC1c1ccc(C(=O)Nc2ccc(C(C)(C)C)cc2)cc1 (stereo not shown) [Compound 22, 4-(1-Acetyl-piperidin-2-yl)-N-(4-tert-butyl-phenyl)-benzamide] | > 6.00 |
| COc1cccc(-c2ccc(C(=O)Nc3ccc(C)c(F)c3)cn2)c1 [Compound 268, N-(3-Fluoro-4-methyl-phenyl)-6-(3-methoxy-phenyl)-nicotinamide] | > 6.00 |
| Cc1cc(NC(=O)c2ccc(-c3ncccc3Cl)cc2)ccc1C(C)C [Compound 26, 4-(3-Chloro-pyridin-2-yl)-N-(4-isopropyl-3-methyl-phenyl)-benzamide] | > 6.00 |
| O=C(Nc1ccc(C(F)(F)F)cc1)c1ccc(-c2ncccc2C(F)(F)F)cc1[N+](=O)[O-] [Compound 19, 2-Nitro-N-(4-trifluoromethyl-phenyl)-4-(3-trifluoromethyl-pyridin-2-yl)-benzamide] | > 6.00 |
| O=C(Nc1ccc2c(c1)OCCCO2)c1ccc(-c2ccccc2F)nc1 [Compound 218, N-(3,4-Dihydro-2H-benzo[b][1,4]dioxepin-7-yl)-6-(2-fluoro-phenyl)-nicotinamide] | > 6.00 |
| CC(C)c1ccc(NC(=O)c2ccc(-c3ncccc3Cl)cc2)cc1 [Compound 27, 4-(3-Chloro-pyridin-2-yl)-N-(4-isopropyl-phenyl)-benzamide] | > 6.00 |
| CC(C)(C)c1ccc(NC(=O)c2ccc(-c3cccc(F)c3)nc2)cc1 [Compound 448, N-(4-tert-Butyl-phenyl)-6-(3-fluoro-phenyl)-nicotinamide] | > 6.00 |
| Cc1ccc(NC(=O)c2ccc(-c3cccc(F)c3)nc2)cc1C [Compound 239, N-(3,4-Dimethyl-phenyl)-6-(3-fluoro-phenyl)-nicotinamide] | > 6.00 |
| COc1cc(NC(=O)c2ccc(-c3ccccc3)cc2)ccc1Cl [Compound 189, Biphenyl-4-carboxylic acid (4-chloro-3-methoxy-phenyl)-amide] | > 6.00 |
| CCOc1cccc(-c2ccc(C(=O)Nc3ccc4c(c3)CCC4)cn2)c1 [Compound 124, 6-(3-Ethoxy-phenyl)-N-indan-5-yl-nicotinamide] | > 6.00 |
| CC(C)(C)c1ccc(NC(=O)c2ccc(-c3ncccc3CO)cc2)cc1 [Compound 412, N-(4-tert-Butyl-phenyl)-4-(3-hydroxymethyl-pyridin-2-yl)-benzamide] | > 6.00 |
| COc1ccccc1-c1ccc(C(=O)Nc2ccc(C(C)C)cc2)cn1 [Compound 378, N-(4-Isopropyl-phenyl)-6-(2-methoxy-phenyl)-nicotinamide] | > 6.00 |
| Cc1nc2cc(NC(=O)c3ccc(-c4cccc(F)c4)nc3)ccc2s1 [Compound 125] | > 6.00 |
| CC(C)(C)c1ccc(NC(=O)c2ccc(-c3ccccn3)cc2)cc1 [Compound 430, N-(4-tert-Butyl-phenyl)-4-pyridin-2-yl-benzamide] | > 6.00 |
| Cc1cccc(-c2ccc(C(=O)Nc3ccc(C(C)C)cc3)cn2)c1 [Compound 383, N-(4-Isopropyl-phenyl)-6-m-tolyl-nicotinamide] | > 6.00 |

| Compound | pKi |
| --- | --- |
| CC(C)(C)c1ccc(NC(=O)c2ccc(-c3ncccc3C(F)(F)F)cc2O)cc1 [Compound 394, N-(4-tert-Butyl-phenyl)-2-hydroxy-4-(3-trifluoromethyl-pyridin-2-yl)-benzamide] | > 6.00 |
| CC(C)(C)c1ccc(NC(=O)c2ccc(-c3ccc4[nH]ccc4c3)cc2)cc1 [Compound 396, N-(4-tert-Butyl-phenyl)-4-(1H-indol-5-yl)-benzamide] | > 6.00 |
| CC(C)(C)c1ccc(NC(=O)c2ccc(-c3ccccc3NS(C)(=O)=O)nc2)cc1 [Compound 445, N-(4-tert-Butyl-phenyl)-6-(2-methanesulfonylamino-phenyl)-nicotinamide] | > 6.00 |
| CC(C)(C)c1ccc(NC(=O)c2ccc(-c3ccccc3)nc2)cc1 [Compound 454, N-(4-tert-Butyl-phenyl)-6-phenyl-nicotinamide] | > 6.00 |
| Cc1cccc(C)c1-c1ccc(C(=O)Nc2ccc(C(C)(C)C)cc2)cn1 [Compound 439, N-(4-tert-Butyl-phenyl)-6-(2,6-dimethyl-phenyl)-nicotinamide] | > 6.00 |
| Cc1cccc(-c2ccc(C(=O)Nc3ccc4c(c3)OCCO4)cn2)c1 [Compound 202, N-(2,3-Dihydro-benzo[1,4]dioxin-6-yl)-6-m-tolyl-nicotinamide] | > 6.00 |
| CC(C)(C)c1ccc(NC(=O)c2ccc(-c3cnc4ccccc4c3)cc2)cc1 [Compound 434, N-(4-tert-Butyl-phenyl)-4-quinolin-3-yl-benzamide] | > 6.00 |
| CCc1ccc(NC(=O)c2ccc(-c3ccccc3C)nc2)cc1 [Compound 374, N-(4-Ethyl-phenyl)-6-o-tolyl-nicotinamide] | > 6.00 |
| Cc1ccccc1-c1ccc(C(=O)Nc2ccc(C(C)C)cc2)cn1 [Compound 384, N-(4-Isopropyl-phenyl)-6-o-tolyl-nicotinamide] | > 6.00 |
| Cc1nc2cc(NC(=O)c3ccc(-c4cccc(C(C)C)c4)nc3)ccc2s1 [Compound 130, 6-(3-Isopropyl-phenyl)-N-(2-methyl-benzothiazol-5-yl)-nicotinamide] | > 6.00 |
| O=C(Nc1ccc(C(F)(F)F)cc1)c1ccc(-c2ccccc2F)nc1 [Compound 92, 6-(2-Fluoro-phenyl)-N-(4-trifluoromethyl-phenyl)-nicotinamide] | > 6.00 |
| COc1ccc(F)cc1-c1ccc(C(=O)Nc2ccc(C(C)(C)C)cc2Cl)cn1 [Compound 391, N-(4-tert-Butyl-2-chloro-phenyl)-6-(5-fluoro-2-methoxy-phenyl)-nicotinamide] | > 6.00 |
| CCCCS(=O)(=O)Nc1cccnc1-c1ccc(C(=O)Nc2ccc(C(C)(C)C)cc2)cc1 [Compound 37, 4-[3-(Butane-1-sulfonylamino)-pyridin-2-yl]-N-(4-eert-butyl-phenyl)-benzamide] | > 6.00 |
| O=C(Nc1ccc(C(F)(F)F)cn1)c1ccc(-c2ncccc2Cl)cc1 [Compound 28, 4-(3-Chloro-pyridin-2-yl)-N-(5-trifluoromethyl-pyridin-2-yl)-benzamide] | > 6.00 |
| O=C(Nc1ccc2c(c1)CCC2)c1ccc(-c2cccc(OC(F)(F)F)c2)nc1 [Compound 464, N-Indan-5-yl-6-(3-trifluoromethoxy-phenyl)-nicotinamide] | > 6.00 |
| CC(C)(C)c1ccc(NC(=O)c2ccc(-c3ccccn3)nc2)cc1 [Compound 9, [2,2′]Bipyridinyl-5-carboxylic acid (4-tert-butyl-phenyl)-amide] | > 6.00 |
| CN(C)Cc1cccnc1-c1ccc(C(=O)Nc2ccc(C(C)(C)C)cc2)cc1 [Compound 407, N-(4-tert-Butyl-phenyl)-4-(3-dimethylaminomethyl-pyridin-2-yl)-benzamide] | > 6.00 |
| CC(C)(C)c1ccc(NC(=O)c2ccc(-c3ccncc3)cc2)cc1 [Compound 432, N-(4-tert-Butyl-phenyl)-4-pyridin-4-yl-benzamide] | > 6.00 |
